Test results: patent publication US9399631B2, “Polyphenol proteasome inhibitors, synthesis, and methods of use” (UNIVERSITY OF SOUTH FLORIDA, priority 2003, dated 2016)

System: LNCaP cells
Test: Western blot of proteasome target proteins in LNCaP cells
Type: cell-based, human
Conditions: for increase of IκB-α levels / increase of p27 levels / Bax protein levels / apoptosis-specific PARP cleavage: 10 μM; for increase of IκB-α levels / increase of p27 levels: 12 hour treatment; for Bax protein levels / apoptosis-specific PARP cleavage: 24 hours
Method in brief: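 LNCaP cells exposed to 25 μM (−)- or (+)-EGCG-amide for up to 9 h, or synthetic analogs for indicated hours. Whole-cell extracts (60 μg protein) probed by ECL Western blot for p27, IκB-α, Bax and polyubiquitinated proteins; p27 or IκB-α quantified as ratio to actin band intensity.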

In the case of O=C(N[C@@H]1Cc2c(O)cc(O)cc2O[C@@H]1c1cc(O)c(O)c(O)c1)c1cc(O)c(O)c(O)c1 [(−)-EGCG-amide, (−)-[2R,3R]-N-[5,7-Dihydroxy-2-(3,4,5-trihydroxyphenyl)-chroman-3-yl]-3,4,5-trihydroxybenzamide], the “levels of p27, IκB-α and Bax” value (25 μM, up to 9 hours) was “able to increase levels of p27, IκB-α and Bax by 3 hours”.

In the case of O=C(OC1Cc2c(O)cc(O)cc2OC1c1cc(O)c(O)c(O)c1)c1cc(O)c(O)c(O)c1 (single isomer, unassigned; (+)) [(+)-EGCG], the “increase of IκB-α levels” value was 2.6 fold, the “increase of p27 levels” value was 3.1 fold and the Bax protein levels was “significantly increased Bax protein levels”. The “apoptosis-specific PARP cleavage” value was “induced the apoptosis-specific PARP cleavage”.

With O=C(OC1Cc2c(O)cc(O)cc2OC1c1cc(O)c(O)c(O)c1)c1cc(O)c(O)c(O)c1 (single isomer, unassigned; (+)) [(+)-GCG] the “increase of IκB-α levels” value was 3.7 fold and the “increase of p27 levels” value was 5.8 fold.

For O=C(O[C@@H]1Cc2c(O)cc(O)cc2O[C@@H]1c1cc(O)c(O)c(O)c1)c1cc(O)c(O)c(O)c1 [(−)-EGCG, (−)-epigallocatechin-3-gallate, reference compound], the Bax protein levels was “significantly increased Bax protein levels”, the “apoptosis-specific PARP cleavage” value was “induced the apoptosis-specific PARP cleavage” and the “levels of Bax protein” value (50 μM, 3 to 12 hours) was “increased only at 12 hours”.
